{"source": "paper PMC5732813", "about": "“Novel piplartine-containing ruthenium complexes: synthesis, cell growth inhibition, apoptosis induction and ROS production on HCT116 cells” (Oncotarget, 2017)", "key": {"[1]": {"tested_on": "B16-F10 (murine melanoma)", "test": "Cytotoxic activity, alamar blue assay, B16-F10", "assay_type": "cell-based", "source_text": "(§1) HCT116 (human colon carcinoma), HepG2 (human hepatocellular carcinoma), HSC-3 (human oral squamous cell carcinoma), SCC-4 (human oral squamous cell carcinoma), SCC-9 (human oral squamous cell carcinoma), HL-60 (human promyelocytic leukemia), K-562 (human chronic myelogenous leukemia), B16-F10 (murine melanoma), MRC-5 (human lung fibroblast), WT SV40 MEF (wild-type immortalized mouse embryonic fibroblast) and BAD KO SV40 MEF (BAD gene knockout immortalized mouse embryonic fibroblast) cell lines were obtained from the American Type Culture Collection (ATCC, Manassas, VA, USA) and cultured in RPMI-1640 medium (Gibco-BRL, Gaithersburg, MD, USA) with 10% fetal bovine serum (Life, Carlsbad, CA, USA), 2 mM L-glutamine (Vetec Química Fina, Duque de Caxias, RJ, Brazil) and 50 μg/mL gentamycin (Life, Carlsbad, CA, USA). Adherent cells were collected by treatment with 0.25% trypsin EDTA solution (Gibco-BRL, Gaithersburg, MD, USA). All cell lines were cultured in flasks at 37°C in 5% CO2 and sub-cultured every 3-4 days to maintain exponential growth.\n(§2) Cell viability was quantified using the alamar blue assay, according to Ahmed et al.. Cells were inserted in 96-well plates for all experiments (7 x 10^4 cells/mL for adherent cells or 3 x 10^5 cells/mL for suspended cells in 100 μL of medium). […] Negative controls received the vehicle that was used for diluting the compounds tested."}, "[2]": {"tested_on": "cancer multicellular spheroids formed from HCT116 cells", "test": "3D multicellular spheroids culture, alamar blue assay", "assay_type": "cell-based, human", "conditions": "Homo sapiens, HCT-116, 72 h", "method": "as §2\nHCT116 cells were cultivated in 3D multicellular spheroids. Briefly, 100 μL of a solution of cells (0.5 x 10^6 cells/mL) were inserted in 96-well plate with a cell-repellent surface (Greiner Bio-One, Kremsmünster, Austria) and cultured in RPMI 1640 medium with 10% fetal bovine serum, 2 mM glutamine, 3% matrigel (BD Biosciences, San Jose, CA, EUA) and 50 μg/mL gentamycin at 37°C with 5% CO2. […] Negative control received the vehicle that was used for diluting the compounds tested. In the end of the experiment, morphological changes were examined by light microscopy (Olympus BX41, Tokyo, Japan) using Image-Pro software (Media Cybernetics, Inc. Silver Spring, USA) and the cell viability was determined by alamar blue assay as described above."}, "[3]": {"tested_on": "WT SV40 MEF (wild-type immortalized mouse embryonic fibroblast)", "test": "Cytotoxic activity, alamar blue assay, WT SV40 MEF", "assay_type": "cell-based", "conditions": "Mus musculus, Fibroblast, 72 h", "source_text": "as §1, §2"}, "[4]": {"tested_on": "HCT116 cells", "test": "Gene expression analysis by qPCR array (TaqMan Array Human Molecular Mechanisms of Cancer)", "assay_type": "cell-based", "conditions": "HCT116, 12 h, DOX 1 μM, PL 10 μM, 1 2.5 μM, 2 5 μM, negative control RQ = 1.0", "method": "HCT116 cells were plated in bottles tissue culture (7x10^4 cells/mL). After 12h of incubation with the complexes, total RNA was isolated from the cells using the RNeasy Plus mini kit (Qiagen, Hilden, Germany) according to the manufacturer’s instructions. The RNA was evaluated by fluorimetry (QuBit™, Life Technologies, Camarillo, CA, EUA). RNA reverse transcription was performed using Superscript VILO™ (Invitrogen Corporation, Waltham, MA, USA). A 96-well plate TaqMan® Array Human Molecular Mechanisms of Cancer (ID 4418806, Applied Biosystems™, Foster City, CA, EUA) was used for the gene expression study by qPCR. The reactions were conducted in the ABI ViiA7 (Applied Biosystems™, Foster City, CA, EUA). The cycle conditions comprised 2 min at 50 °C, 20 s at 95 °C, then 40 cycles of 3 s at 95 °C and 30 s at 60 °C. […] The GAPDH, 18S and HPRT1 genes were used for normalization. All experiments were performed in DNase/RNase free conditions."}}, "note": "“And” between values parts separate entries of the source, which are not always exact repeats. Equal values may be shown once."}
{"smiles": "COc1cc(/C=C/C(=O)N2CCC=CC2=O)cc(OC)c1OC", "note": "[Piplartine]", "values": [{"measurement": "Selectivity index (SI)", "setting": "[1]; SI = IC50[MRC-5]/IC50[B16-F10]", "result": 1.6}, {"measurement": "Selectivity index (SI)", "setting": "[1]; SI = IC50[PBMC]/IC50[B16-F10]", "result": 3.2}, {"measurement": "IC50", "setting": "[2]", "result": 22.1, "unit": "µM"}, {"measurement": "IC50", "setting": "[3]", "result": 4.5, "unit": "µM"}, {"measurement": "RQ ABL1", "setting": "[4]", "result": 1.144}, {"measurement": "RQ AKT1", "setting": "[4]", "result": 1.285}, {"measurement": "RQ AKT2", "setting": "[4]", "result": 1.068}, {"measurement": "RQ APC", "setting": "[4]", "result": 1.236}, {"measurement": "RQ BAX", "setting": "[4]", "result": 2.160}, {"measurement": "RQ BCAR1", "setting": "[4]", "result": 0.705}, {"measurement": "RQ BCL2L1", "setting": "[4]", "result": 0.822}, {"measurement": "RQ BCL2L11", "setting": "[4]", "result": 1.536}, {"measurement": "RQ BID", "setting": "[4]", "result": 0.528}, {"measurement": "RQ BRAF", "setting": "[4]", "result": 1.512}, {"measurement": "RQ CASP8", "setting": "[4]", "result": 0.915}, {"measurement": "RQ CASP9", "setting": "[4]", "result": 1.065}, {"measurement": "RQ CCND3", "setting": "[4]", "result": 1.144}, {"measurement": "RQ CCNE1", "setting": "[4]", "result": 1.418}, {"measurement": "RQ CDC42", "setting": "[4]", "result": 2.542}, {"measurement": "RQ CDK2", "setting": "[4]", "result": 0.722}, {"measurement": "RQ CDK4", "setting": "[4]", "result": 0.873}, {"measurement": "RQ CDKN1A", "setting": "[4]", "result": 2.847}, {"measurement": "RQ CDKN1B", "setting": "[4]", "result": 1.545}, {"measurement": "RQ CRK", "setting": "[4]", "result": 0.381}, {"measurement": "RQ CTNNB1", "setting": "[4]", "result": 1.026}, {"measurement": "RQ DVL1", "setting": "[4]", "result": 0.913}, {"measurement": "RQ E2F1", "setting": "[4]", "result": 0.764}, {"measurement": "RQ ELK1", "setting": "[4]", "result": 0.625}, {"measurement": "RQ ERBB2", "setting": "[4]", "result": 1.273}, {"measurement": "RQ FAS", "setting": "[4]", "result": 1.371}, {"measurement": "RQ FGF2", "setting": "[4]", "result": 0.854}, {"measurement": "RQ GRB2", "setting": "[4]", "result": 1.219}, {"measurement": "RQ GSK3B", "setting": "[4]", "result": 1.249}, {"measurement": "RQ GUSB", "setting": "[4]", "result": 5.2}, {"measurement": "RQ HRAS", "setting": "[4]", "result": 0.928}, {"measurement": "RQ ITGB1", "setting": "[4]", "result": 0.784}, {"measurement": "RQ KRAS", "setting": "[4]", "result": 0.133}, {"measurement": "RQ MAPK1", "setting": "[4]", "result": 1.098}, {"measurement": "RQ MAPK8", "setting": "[4]", "result": 0.887}, {"measurement": "RQ MAPK14", "setting": "[4]", "result": 1.009}, {"measurement": "RQ MDM2", "setting": "[4]", "result": 0.901}, {"measurement": "RQ MYC", "setting": "[4]", "result": 0.271}, {"measurement": "RQ NFKB1", "setting": "[4]", "result": 0.870}, {"measurement": "RQ NFKB2", "setting": "[4]", "result": 0.818}, {"measurement": "RQ NRAS", "setting": "[4]", "result": 0.600}, {"measurement": "RQ PIK3CA", "setting": "[4]", "result": 0.910}, {"measurement": "RQ RB1", "setting": "[4]", "result": 1.314}, {"measurement": "RQ RELA", "setting": "[4]", "result": 1.240}, {"measurement": "RQ RHOA", "setting": "[4]", "result": 0.979}, {"measurement": "RQ SRC", "setting": "[4]", "result": 1.076}, {"measurement": "RQ TCF3", "setting": "[4]", "result": 0.774}, {"measurement": "RQ TGFB1", "setting": "[4]", "result": 0.947}, {"measurement": "RQ TGFBR1", "setting": "[4]", "result": 0.545}, {"measurement": "RQ VEGFA", "setting": "[4]", "result": 1.245}, {"measurement": "RQ BCL2", "setting": "[4]; listed as PL", "result": "1.1 and 1.049"}, {"measurement": "RQ CCND1", "setting": "[4]; listed as PL", "result": "0.7 and 0.669"}, {"measurement": "RQ CDH1", "setting": "[4]; listed as PL", "result": "2.5 and 2.494"}, {"measurement": "RQ CDKN2A", "setting": "[4]; listed as PL", "result": "1.6 and 1.575"}, {"measurement": "RQ CYCS", "setting": "[4]; listed as PL", "result": "1.0 and 0.954"}, {"measurement": "RQ EGFR", "setting": "[4]; listed as PL", "result": "1.2 and 1.173"}, {"measurement": "RQ FADD", "setting": "[4]; listed as PL", "result": "0.4 and 0.369"}, {"measurement": "RQ FN1", "setting": "[4]; listed as PL", "result": "2.0 and 1.952"}, {"measurement": "RQ FOS", "setting": "[4]; listed as PL", "result": "31.0 and 30.985"}, {"measurement": "RQ FYN", "setting": "[4]; listed as PL", "result": "1.7 and 1.675"}, {"measurement": "RQ FZD1", "setting": "[4]; listed as PL", "result": "1.0 and 0.953"}, {"measurement": "RQ IGF1R", "setting": "[4]; listed as PL", "result": "2.1 and 2.082"}, {"measurement": "RQ ITGA2B", "setting": "[4]; listed as PL", "result": "3.0 and 2.963"}, {"measurement": "RQ ITGAV", "setting": "[4]; listed as PL", "result": "1.0 and 0.993"}, {"measurement": "RQ JUN", "setting": "[4]; listed as PL", "result": "3.8 and 3.837"}, {"measurement": "RQ KDR", "setting": "[4]; listed as PL", "result": "8.3 and 8.270"}, {"measurement": "RQ MAP2K1", "setting": "[4]; listed as PL", "result": "0.8 and 0.759"}, {"measurement": "RQ MAP3K5", "setting": "[4]; listed as PL", "result": "0.6 and 0.609"}, {"measurement": "RQ MAPK3", "setting": "[4]; listed as PL", "result": "1.7 and 1.726"}, {"measurement": "RQ MAX", "setting": "[4]; listed as PL", "result": "3.1 and 3.051"}, {"measurement": "RQ NFKBIA", "setting": "[4]; listed as PL", "result": "2.0 and 1.989"}, {"measurement": "RQ PIK3R1", "setting": "[4]; listed as PL", "result": "2.4 and 2.352"}, {"measurement": "RQ PTEN", "setting": "[4]; listed as PL", "result": "0.5 and 0.501"}, {"measurement": "RQ PTK2", "setting": "[4]; listed as PL", "result": "0.6 and 0.616"}, {"measurement": "RQ PTK2B", "setting": "[4]; listed as PL", "result": "2.3 and 2.265"}, {"measurement": "RQ RAC1", "setting": "[4]; listed as PL", "result": "0.7 and 0.731"}, {"measurement": "RQ RAF1", "setting": "[4]; listed as PL", "result": "0.6 and 0.574"}, {"measurement": "RQ SHC1", "setting": "[4]; listed as PL", "result": "0.2 and 0.243"}, {"measurement": "RQ SMAD4", "setting": "[4]; listed as PL", "result": "0.9 and 0.942"}, {"measurement": "RQ SOS1", "setting": "[4]; listed as PL", "result": "0.9 and 0.851"}, {"measurement": "RQ SPP1", "setting": "[4]; listed as PL", "result": "1.3 and 1.338"}, {"measurement": "RQ TGFBR2", "setting": "[4]; listed as PL", "result": "1.2 and 1.177"}, {"measurement": "RQ TP53", "setting": "[4]; listed as PL", "result": "1.2 and 1.182"}]}
